{"source": "patent US10363239B2", "about": "“Method for inhibiting growth of cancer cells” (Pain Therapeutics, Inc., priority 2013, dated 2019)", "key": {"MiaPaCa2 cells": {"tested_on": "MiaPaCa2 cells", "assay": "Cell proliferation by cell-cycling markers Ki67 and PCNA (Western blots)", "type": "cell-based, human", "settings": "0.1-5 nM; 4 days", "method": "The effect of contact with Compound C0105 on cell proliferation was determined by the levels of cell-cycling markers Ki67 and PCNA using Western blots. Cells treated with vehicle and 0.1-5 nM C0105 for 4 days were collected, washed and solubilized (lysed). The resultant cell lysates were size-fractionated on SDS-PAGE and Western blotting to determine the levels of Ki67, PCNA and actin (loading control). The protein bands were quantified using densitometric scanning. […] N=4. *p<0.01 compared to vehicle (open bars).\n(§1) To study the effect of Compound C0105 on PI3K activity, the cancer and primary normal cells were cultured to approximately 60-70% confluency, serum deprived for 4 hours, briefly washed with PBS and treated with vehicle or 0.1, 0.5, 1 or 5 nM Compound C0105 for 24 hours with in 0.1% FBS-containing culture medium. […] The cell pellets were sonicated in ice-cold immunoprecipitation buffer and protein concentrations measured by the Bradford method. […]\nImmunoreactivity was visualized by reaction in ECL Plus chemiluminescent reagent for exactly 5 minutes, followed by immediate exposure of the blot to X-ray film (Z & Z Medical). Bands at the relevant molecular masses of Ki67 and PCNA were quantified by densitometric scan. Membranes were stripped, washed 5× in 0.1% PBST (2 minutes each) and the actin content analyzed by immunoblotting using monoclonal anti-actin to illustrate even loading."}, "[1]": {"tested_on": "primary human mammary epithelial cells (HMECs)", "assay": "Cell proliferation by cell-cycling markers Ki67 and PCNA (Western blots)", "type": "cell-based", "settings": "0.1-5 nM; 4 days", "method": "The effect of contact with Compound C0105 on cell proliferation was determined by the levels of cell-cycling markers: Ki67 and PCNA using Western blots in HTB-22 and control human mammary epithelial cells (HMECs). Cells treated with vehicle and 0.1-5 nM Compound C0105 for 4 days were collected, washed and solubilized. The resultant cell lysates were size-fractionated on SDS-PAGE and Western blotting to determine the levels of Ki67, PCNA and actin (loading control). The protein bands were quantified using densitometric scanning.\nThe effect of C0105 on cell proliferation was determined by the levels of cell-cycling markers Ki67 and PCNA using Western blots in HTB-22 and control HMECs. Cells contacted with vehicle and 0.1-5 nM Compound C0105 for 4 days were collected, washed and solubilized. […] The protein bands were quantified using densitometric scanning. […]\nas §1"}, "[2]": {"tested_on": "FLNA-bound K-ras and ras-GAP in lung fibroblasts", "assay": "FLNA-bound K-ras and ras-GAP (immunoprecipitation, Western blotting)", "type": "cell-based, human", "method": "Thus, melanoma, two different pancreatic cancerous cell lines (MiaPaCa2 and BxPc3) and a glioblastoma cell line (U87) were treated with zero (vehicle), 0.1, 0.5, 1 and 5 nM Compound C0105 as previously discussed, and FLNA-bound K-ras and ras-GAP were immunoprecipitated, separated by Western blotting and the blot densities determined as discussed previously.\nTo study the effect of Compound C0105 on pS^2152FLNA levels, FLNA linkages to key regulators including protein phosphatases as well as activated Akt (pS^473-, pT^308-Akt), mTOR (pS^2442mTOR) and ERK (pY/pT-ERK) levels, the cancer and normal cells were cultured to approximately 90% confluency and treated with vehicle or varying concentrations of Compound C0105. […]\nThe cell lysates were diluted 5-fold with immunoprecipitation buffer and immunoprecipitated with anti-FLNA, -Akt, -mTOR and -ERK2 as described previously [Talbot et al., J Clin Inv 122(4):1-23 (2012); Wang et al., J Neurosci 32(29):9773-9784 (2012)]. The levels of FLNA linkages, activated phosphorylated Akt (pS^473 and pT^308), phosphorylated mTOR (pS^2448) and phosphorylated ERK2 (pY/pT) were determined in anti-FLNA, -Akt, -mTOR and -ERK2 immunoprecipitates by Western blotting with appropriate antibodies directed against PTEN, PP2A, K-RAS, ras-GAP (FLNA linkages), pS^473Akt, pT^308Akt, pS^2448mTOR and pY/pT ERK2 (activation of Akt, mTOR and ERK2). […]"}, "[3]": {"tested_on": "metastatic (liver) neuroendocrine tumor cells", "assay": "Cell proliferation by Ki67 and PCNA (Western blotting)", "type": "cell-based, human", "settings": "1 nM; 4 days"}}, "data": [{"smiles": "CN1CCC2(CC1)NCC(=O)N2Cc1ccccc1", "note": "[Compound C0105]", "values": [{"measurement": "Cell proliferation (Ki67 and PCNA levels)", "setting": "MiaPaCa2 cells", "result": "reduces cell proliferation"}, {"measurement": "Cell proliferation (Ki67 and PCNA levels)", "setting": "[1]", "result": "had no effect"}, {"measurement": "FLNA-associated K-ras and ras-GAP", "setting": "[2]", "result": "had no effect on fibroblasts"}, {"measurement": "Cell proliferation (Ki67 and PCNA levels)", "setting": "[3]", "result": "Inhibits Proliferation"}]}]}
